A short description of the data set: in vitro. Details: MTT cytotoxicity assay, absorbance 450 nm, normal cell line. The settings on record: human, wi-38 cells; read-out: Cytotoxicity IC50 uM WI38. As to the method:
3.2.3. […] The remaining substances and tools were from either Sigma or Invitrogen. Before performing the MTT experiment, cells were seeded on a 96-well plate at a density of 1.2–1.8 10,000 cells/well in a volume of 100 μL complete growth media + 100 μL of the test substance each well. Multiwell plates are an excellent choice for using the MTT method, which is used to track in vitro cytotoxicity. Using cells in the log phase of growth and keeping the ultimate cell density around 10^6 cells/cm^2 will produce the best results. Every test should include a blank with a full medium but no cells. Cultures should be moved from the incubator into a sterile workspace, such as a laminar flow hood. Each MTT [M-5655] vial should be reconstituted with 3 mL of medium or balanced salt solution devoid of phenol red and serum. 10% of the volume of the culture medium should be added to the reconstituted MTT solution. Incubate cultures again for 2–4 h, depending on the type of cell and the maximal cell density. […] After the incubation period, remove the cultures from the incubator and apply MTT Solubilization Solution [M-8910] in a quantity equal to the volume of the original culture media to dissolve the formazan crystals that formed. In a gyratory shaker, gentle blending will improve solubility. Trituration, or pipetting up and down, may occasionally be necessary to completely dissolve the MTT formazan crystals, especially in thick cultures at a wavelength of 450 nm, and measure the absorbance spectrophotometrically. The background absorbance of multiwell plates at 690 nm were subtracted from 450 nm data. A suitable plate 7. Incubate cultures at 37°C for 24 hrs. 8-After treatment of cells with the serial concentrations of the compound to be tested incubation is carried out for 48 h at 37 °C ,then the plates are to be examined under the inverted microscope and proceed for the MTT assay MTT – Cytotoxicity assay protocol The MTT method of monitoring in vitro cytotoxicity is well suited for use with multiwell plates. For best results, cells in the log phase of growth should be employed and final cell number should not exceed 10^6 cells/cm2. Each test should include a blank containing complete medium without cells. 1. Remove cultures from incubator into laminar flow hood or other sterile work area.

The results in this text go back to PMC12030355 (Pharmaceuticals, 2025).

On to `CCOC(=O)N1CCN(c2cc3c(cc2F)c(=O)c(C(=O)O)cn3CC)CC1` [compound 7, 7-(4-(Ethoxycarbonyl)piperazin-1-yl)-1-ethyl-6-fluoro-4-oxo-1,4-dihydroquinolin-3-carboxylic acid], for which the CC50 at 48 h was 47.9 µM.

`COc1cccc2c1C(=O)c1c(O)c3c(c(O)c1C2=O)C[C@@](O)(C(=O)CO)C[C@@H]3O[C@H]1C[C@H](N)[C@H](O)[C@H](C)O1` [Doxorubicin]: the CC50 at 48 h was determined as 14.1 µM.

In the case of `CCn1cc(C(=O)O)c(=O)c2cc(F)c(N3CCNCC3)cc21` [compound 1, norfloxacin], the CC50 at 48 h was determined as 54.6 µM.

Turning to `CCn1cc(-c2nc3ccccc3s2)c(=O)c2cc(F)c(N3CCNCC3)cc21` [compound 15, 3-(Benzo[d]thiazol-2-yl)-1-ethyl-6-fluoro-7-(piperazin-1-yl)quinolin-4(1H)-one], the CC50 at 48 h came out at 39.2 µM.

Consider `CCn1cc(-c2nc3ccccc3s2)c(=O)c2cc(F)c(N3CCN(C(=O)CCl)CC3)cc21` [compound 16, 3-(Benzo[d]thiazol-2-yl)-7-(4-(2-chloroacetyl)piperazin-1-yl)-1-ethyl-6-fluoroquinolin-4(1H)-one], for which the CC50 at 48 h is 51.2 µM.

In the case of `CCn1cc(C(=O)O)c(=O)c2cc(F)c(N3CCN(C(=O)CC#N)CC3)cc21` [compound 6], the CC50 at 48 h is 34.1 µM.
